Measurements published in article PMC7734798 (ACS Medicinal Chemistry Letters, 2020).
“And” between values parts separate entries of the source, which are not always exact repeats. Equal entries are not always repeated. Where two headings read alike, the source gives them in different places.

Assays:
[1] = PAMPA-BBB permeation assay; conditions: PAMPA-BBB prediction
Olig2 = assay: Oli-Neu proliferation marker Olig2 expression (Western blot); type: cell-based, mouse; conditions: Oli-Neu cells, 5 μM, 48 h
Description: (§1) OPC proliferation and migration to the CNS injury site as well as their differentiation are critical steps toward remyelination in MS. HDAC activity plays a crucial role in OPC proliferation/differentiation; therefore, HDAC modulation is widely considered a promising therapeutic target for MS.[30] […] Therefore, we tested the effect of our compounds on OPC proliferation and differentiation, through cell counting, measure of filaments, and analysis of proliferation/differentiation markers (Figure 7).
(§2) Oli-Neu cells were grown in SATO medium (DMEM medium, 2 mM glutamine, 10 μg/ml insulin, 5.5 μg/ml transferrin, 38.72 nM sodium selenite, 100 µM putrescine, 520 nM L-thyroxine (T4), 500 nM triiodo-L-thyronine (T3), 200 nM progesterone, 25 μg/ml of gentamycin) supplemented with 1% heat-inactivated horse serum (HS) in a humidified, 5% CO2 incubator at 37°C. Cell culture medium and all chemicals were from Sigma-Aldrich, except for insulin-transferrin-sodium selenite 100X supplement (Life Technologies Corporation). Cells were plated on 96 well plates, previously coated with 10 μg/mL poly-L-lysine (Sigma-Aldrich; 10 μg/ml) at the density of 2.5 x 10 4/0.2 mL medium/well and treated with increasing concentrations of the compounds (0.5, 1, 5 and 10 μM).
After 24 hours, the viability was evaluated through the MTT assay.
(§3) Oli-Neu cells proliferation and differentiation assay
(§4) 48 hours, for cell counting and measure of filaments, 5 random images for each condition were acquired with an Eclipse TS100 (Nikon) microscope using a 10X objective. Cells number and filament length were measured with Fiji ImageJ2 software. After 48 hours for proliferation and 72 hours of treatment for differentiation analysis, cells were lysed in ice-cold lysis buffer (50 mM Tris-HCl pH 7.4, 1% SDS, 0.05% protease inhibitor cocktail; all from Sigma-Aldrich) and protein content was determined by using the Lowry method. […]

Oli-Neu cells = assay: Oli-Neu cell proliferation and differentiation assay: cell counting and measure of filaments; type: cell-based, mouse; conditions: 5 μM, 48 h
Description: as §1
as §2, with “μM). […]” for “μM).”
as §3
48 hours, for cell counting and measure of filaments, 5 random images for each condition were acquired with an Eclipse TS100 (Nikon) microscope using a 10X objective. Cells number and filament length were measured with Fiji ImageJ2 software. […]

CNPase = assay: Oli-Neu differentiation marker CNPase expression (Western blot); type: cell-based, mouse; conditions: Oli-Neu cells, 5 μM, 72 h
Description: as §1, with “7). […]” for “7).”
After 24 hours, the viability was evaluated through the MTT assay. […]
as §4

[2] = system: primary rat cerebellar granule neurons (CGNs); conditions: for cell survival/death in CGNs, % mean ± SE of controls (MTT): 24 h treatment
[3] = PAMPA
[4] = system: human liver carcinoma immortalized cell line (HepG2); conditions: 24 h treatment

SMILES	cell survival/death in CGNs, % mean ± SE of controls (MTT) ([2]; 5 μM)	cell survival/death in CGNs, % mean ± SE of controls (MTT) ([2]; 10 μM)	cell survival/death in CGNs, % mean ± SE of controls (MTT) ([2]; 25 μM)	cell survival/death in CGNs, % mean ± SE of controls (MTT) ([2]; 50 μM)	cell survival/death in HepG2 cells, % mean ± SE of controls (MTT) ([4]; 5 μM)	cell survival/death in HepG2 cells, % mean ± SE of controls (MTT) ([4]; 10 μM)	cell survival/death in HepG2 cells, % mean ± SE of controls (MTT) ([4]; 25 μM)	cell survival/death in HepG2 cells, % mean ± SE of controls (MTT) ([4]; 50 μM)	further results
CNC(=C[N+](=O)[O-])NCCSCc1ccc(CN(C)C)o1 [ranitidine, reference compound]	–	–	–	–	–	–	–	–	BBB penetration estimation, CNS (+/−) [1]: CNS –
CCCC(CCC)C(=O)O [VPA, valproic acid, reference compound]	–	–	–	–	–	–	–	–	expression of Olig2, marker of OPCs proliferation (Olig2): marked decrease; Oli-Neu cell number (Oli-Neu cells): decrease cell number; Oli-Neu filament length (Oli-Neu cells): parallel increase in filament length; expression of CNPase, marker of differentiation (CNPase): significant increase; neurotoxicity profile in CGNs (in words) ([2]; 5-50 μM, 24 h): negligible neurotoxicity
Nc1c2c(nc3ccccc13)CCCC2 [tacrine]	–	–	–	–	–	–	–	–	BBB penetration estimation, CNS (+/−) [3]: CNS +
CC/C=C\C/C=C\C/C=C\CCCCCCCC(=O)O [ALA, α-linolenic acid, reference compound]	93 ± 13%	97 ± 3%	79 ± 12%	45% and 45 ± 5 ^b %	109 ± 17%	90 ± 5%	91 ± 13%	92 ± 9%	–
CC/C=C\C/C=C\C/C=C\CCCCCCCC(=O)OCCNC(=O)C(CCC)CCC [compound 3]	119 ± 17%	116 ± 3%	99 ± 17%	41% and 41 ± 6 ^b %	86 ± 10%	92 ± 3%	84 ± 10%	75 ± 13%	–
CC/C=C\C/C=C\C/C=C\CCCCCCCC(=O)OCCOC(=O)C(CCC)CCC [compound 4]	118 ± 16%	114 ± 3%	71 ± 8%	45% and 45 ± 8 ^b %	95 ± 14%	99 ± 5%	75 ± 12%	74 ± 12%	–
